Tests used:
Assay in all cases: Cell proliferation inhibition, CTG (CelltiterGlo) method, alone or combined with fulvestrant
Assay type in all cases: cell-based
T47D Cells = conditions: compound alone; for IC50: Homo sapiens, T47D, 168 h, 7 days; for Maximum Inhibition Rate on T47D Cells: maximum value fitted by GraphPad Prism 8
Description: (§1) a). BT-474 cells were cultured in Hybri-Care medium supplemented with 1% antibiotics and 10% FBS, and incubated in the condition of 37°C with 5% CO2; b). MCF-7 cells were cultured in EMEM medium supplemented with 1% antibiotics, 0.01 mg/mL insulin, and 10% FBS, and incubated in the condition of 37°C with 5% CO2; c). ZR-75-1 cells were cultured in RPMI-1640 medium supplemented with 1% antibiotics and 10% FBS, and incubated in the condition of 37°C with 5% CO2; d). T47D cells were cultured in RPMI-1640 medium supplemented with 1% antibiotics, 0.2 U/mL insulin, and 10% FBS, and incubated in the condition of 37°C with 5% CO2; e) CAMA-1 cells were cultured in EMEM medium supplemented with 1% antibiotics and 10% FBS, and incubated in the condition of 37°C with 5% CO2.
(§2) a). Cells were routinely cultured until reaching 80%-90% confluence and when the required cell number was reached, they were harvested; b). Resuspended in the corresponding medium, counted, and prepared into a cell suspension with appropriate density; c). The cell suspension was added to a 384-well plate at 40 µL per well. Table 1. Plating densities of different cell lines
(§3) d). The cells were cultured overnight in an incubator at 37°C with 5% CO2 .
(§4) a). The compound of Formula (A) was serially diluted 3-fold for 10 concentrations starting from a stock solution of 60 mM (using the monofumarate dihydrate of the compound of Formula (A), with the concentration calculated based on the free base of the compound of Formula (A); the compound of Formula (A) or salt thereof was prepared with reference to the preparation method disclosed in WO2022017448A1); b). Fulvestrant was diluted from 10 mM to 2 mM with DMSO, then serially diluted 3-fold for 10 concentrations; c). Fulvestrant was diluted from 2 mM to 0.2 mM with DMSO, then serially diluted 3-fold for 10 concentrations; d). Fulvestrant was diluted from 0.2 mM to 2 µM with DMSO; e). Fulvestrant was diluted from 2 µM to 0.8 µM with DMSO; f). Fulvestrant was diluted from 2 µM to 0.3 µM with DMSO; g) Fulvestrant was diluted from 0.8 µM to 0.08 µM with DMSO; h). The final concentration of DMSO was 0.1%; i). Cells supplemented with DMSO served as control wells for high reading values; j). Cell-free medium served as control wells for low reading values.
(§5) 24 Hours after MCF-7, T47D, and CAMA-1 cells were plated, the compound was administered alone. For the compound of Formula (A): 20 nL of the compound prepared in step 2.3 a) + 20 nL of DMSO were added. For compound fulvestrant: 20 nL of the compound prepared in step 2.3 c) + 20 nL of DMSO were added.
24 Hours after T47D cells were plated, the compound of Formula (A) was administered in combination with fulvestrant: 20 nL of the compound prepared in step 2.3 a) + 20 nL of the compounds prepared in step 2.3 c), e), and g). […]

MCF-7 Cells = conditions: compound alone; for IC50: Homo sapiens, MCF7, 168 h, 7 days; for Maximum Inhibition Rate on MCF-7 Cells: maximum value fitted by GraphPad Prism 8
Description: as §1, §2, §3, §4, §5
24 Hours after MCF-7 cells were plated, the compound of Formula (A) was administered in combination with fulvestrant: 20 nL of the compound prepared in step 2.3 a) + 20 nL of the compounds prepared in step 2.3 c), e), and f). […]

BT-474 Cells = conditions: compound alone; for IC50: Homo sapiens, BT-474, 168 h, 7 days; for Maximum Inhibition Rate on BT-474 Cells: maximum value fitted by GraphPad Prism 8
Description: as §1, §2, §3, §4
(§6) 24 Hours after BT474 and ZR-75-1 cells were plated, the compound was administered alone. For the compound of Formula (A): 20 nL of the compound prepared in step 2.3 a) + 20 nL of DMSO were added. For the compound fulvestrant: 20 nL of the compound prepared in step 2.3 b) + 20 nL of DMSO were added.
(§7) 24 Hours after BT474 and ZR-75-1 cells were plated, the compound of Formula (A) was administered in combination with fulvestrant: 20 nL of the compound prepared in step 2.3 a) + 20 nL of the compounds prepared in step 2.3 b) and d).
(§8) Fulvestrant for point-to-point combination (nM): 1000, 333, 111, 37, 12.3, 4.1, 1.37, 0.46, 0.15, 0.05, which are respectively combined with the gradient concentrations of the compound of Formula (A); Fulvestrant for single-concentration combination (nM): 1000, 1, which are respectively combined with the gradient concentrations of the compound of Formula (A).
(§9) The compound of Formula (A) (nM): 30000, 10000, 3333, 1111, 370, 123, 41.2, 13.7, 4.57, 1.52; • Fulvestrant for point-to-point combination (nM): 100, 33.3, 11.1, 3.7, 1.23, 0.41, 0.14, 0.046, 0.015, 0.005, which are respectively combined with the gradient concentrations of the compound of Formula (A); • Fulvestrant for single-concentration combination (nM): 1.2, 0.14, which are respectively combined with the gradient concentrations of the compound of Formula (A). d). The cell culture plates were centrifuged at 1000 rpm for 1 min, then placed in an incubator at 37°C with 5% CO2 for 7 days.
(§10) a). 40 µL of CTG reagent (CelltiterGlo kit) was added to each well, placed on a rapid shaker for 2 minutes of oscillation, centrifuged at 1000 rpm for 1 min, and then left at room temperature in the dark for 30 minutes; b). […]

ZR-75-1 Cells = conditions: compound alone; for IC50: Homo sapiens, ZR-75-1, 168 h, 7 days; for Maximum Inhibition Rate on ZR-75-1 Cells: maximum value fitted by GraphPad Prism 8
Description: as §1, §2, §3, §4, §6, §7, §8, §9, §10

For `CC(C)NC[C@@H](C(=O)N1CCN(c2ncnc3c2[C@H](C)CC(=O)N3)[C@H]2C[C@H]21)c1ccc(Cl)cc1` [The compound of Formula (A), (R)-4-((1S,6R)-5-((S)-2-(4-chlorophenyl)-3-(isopropylamino)propanoyl)-2,5-diazabicyclo[4.1.0]heptan-2-yl)-5-methyl-5,8-dihydropyrido[2,3-d]pyrimidin-7(6H)-one], the IC50 (T47D Cells) was 358 nM, the “Maximum Inhibition Rate on T47D Cells” value (T47D Cells) was 91.47% and the IC50 (MCF-7 Cells) was 759 nM. For the same compound, the “Maximum Inhibition Rate on MCF-7 Cells” value (MCF-7 Cells) was 98.92%, the IC50 (BT-474 Cells) was 668 nM and the “Maximum Inhibition Rate on BT-474 Cells” value (BT-474 Cells) was 84.62%. The IC50 (ZR-75-1 Cells) was 2170 nM and the “Maximum Inhibition Rate on ZR-75-1 Cells” value (ZR-75-1 Cells) was 92.45%.

For `C[C@]12CC[C@@H]3c4ccc(O)cc4C[C@@H](CCCCCCCCC[S+]([O-])CCCC(F)(F)C(F)(F)F)[C@H]3[C@@H]1CC[C@@H]2O` (stereo partly shown) [Fulvestrant, reference compound], the IC50 (T47D Cells) was 0.09 nM, the “Maximum Inhibition Rate on T47D Cells” value (T47D Cells) was 62.71% and the IC50 (MCF-7 Cells) was 0.19 nM. The “Maximum Inhibition Rate on MCF-7 Cells” value (MCF-7 Cells) was 54.67%, the IC50 (BT-474 Cells) was over 1000 nM and the “Maximum Inhibition Rate on BT-474 Cells” value (BT-474 Cells) was 43.33%. For the same compound, the IC50 (ZR-75-1 Cells) was over 1000 nM and the “Maximum Inhibition Rate on ZR-75-1 Cells” value (ZR-75-1 Cells) was 43.96%.
